Test results taken from ChEMBL document CHEMBL6182844, “LC-MS Guided Discovery and Biosynthetic Pathway of Coprisamides E-H, Cinnamic Acid-Containing Metabolites from the Marine Algae-Derived Streptomyces thermolineatus NAK03196” (2025).
≈ marks a conversion by molar mass, not a printed value. Calls of active or inactive are those of the source. The calls are words filed in the database; no cut-off is given here.

What was measured:
Settings in all cases: time 12-16 hrs
Staphylococcus aureus [1] = assay: Antibacterial activity against the Staphylococcus aureus 16339 incubated for 12 to 16 hrs by paper disc diffusion assay; assay type: functional
Staphylococcus aureus [2] = assay: Antibacterial activity against Staphylococcus aureus ATCC 29213 assessed as inhibition on the growth incubated for 12 to 16 hrs by paper disc diffusion assay; assay type: functional, organism-based
Staphylococcus aureus [3] = assay: Antibacterial activity against methicillin-resistant Staphylococcus aureus ATCC 43300 assessed as inhibition on the growth incubated for 12 to 16 hrs by paper disc diffusion assay; assay type: functional, organism-based
Enterococcus faecalis = assay: Antibacterial activity against Enterococcus faecalis assessed as inhibition on the growth incubated for 12 to 16 hrs by paper disc diffusion assay; assay type: functional, organism-based
Micrococcus luteus = assay: Antibacterial activity against Micrococcus luteus assessed as inhibition on the growth incubated for 12 to 16 hrs by paper disc diffusion assay; assay type: functional, organism-based
Klebsiella pneumoniae = assay: Antibacterial activity against Klebsiella pneumoniae assessed as inhibition on the growth incubated for 12 to 16 hrs by paper disc diffusion assay; assay type: functional, organism-based
Acinetobacter baumannii = assay: Antibacterial activity against Acinetobacter baumannii assessed as inhibition on the growth incubated for 12 to 16 hrs by paper disc diffusion assay; assay type: functional, organism-based
Pseudomonas aeruginosa = assay: Antibacterial activity against Pseudomonas aeruginosa assessed as inhibition on the growth incubated for 12 to 16 hrs by paper disc diffusion assay; assay type: functional, organism-based
Escherichia coli = assay: Antibacterial activity against Escherichia coli assessed as inhibition on the growth incubated for 12 to 16 hrs by paper disc diffusion assay; assay type: functional, organism-based

Structure (SMILES)	MIC (Staphylococcus aureus [1])	inhibition (Staphylococcus aureus [2])	inhibition (Staphylococcus aureus [3])	inhibition (Enterococcus faecalis)	inhibition (Micrococcus luteus)	inhibition (Klebsiella pneumoniae)	inhibition (Acinetobacter baumannii)	inhibition (Pseudomonas aeruginosa)	inhibition (Escherichia coli)
C/C=C/C=C/C=C\c1ccccc1/C=C/C(=O)N[C@H](C)C(=O)N[C@@H]1COC(=O)[C@H](CC(=O)O)NC(=O)[C@H](CNC(=O)[C@@H](N)C(C)C)NC(=O)[C@H](C(C)C)NC(=O)[C@@H](CC(C)C)NC1=O	890 µg/mL (≈ 997 µM)	inactive	inactive	inactive	inactive	inactive	inactive	inactive	inactive
CN(C)[C@@H]1C(O)=C(C(N)=O)C(=O)[C@@]2(O)C(O)=C3C(=O)c4c(O)cccc4[C@@](C)(O)[C@H]3C[C@@H]12 [TETRACYCLINE]	10 µg/mL (≈ 22.5 µM)								
